# ± gives the expanded uncertainty stated by the source.
# Legend:
# [1] = refractive index (Na D-line) (dimensionless); conditions: 298.2 K; 101.33 kPa; Liquid; Standard Abbe refractometry
# [2] = 298.2 K; 101.33 kPa; Liquid; Vibrating tube method
Structure (SMILES),refractive index [1],mass density [2] [kg/m3]
CC1CN1 (stereo not given) [2-methylaziridine],1.4116 ± 0.0006,802.23 ± 0.8
ClC(Cl)Cl [trichloromethane],1.4456 ± 0.0004,1480.34 ± 0.34
O [water],1.333 ± 0.0004,–

# From the NIST ThermoML archive (doi:10.1016/j.fluid.2012.11.018)
